Measured values as given in ChEMBL document CHEMBL3885881, “DrugMatrix”.

Species on record: Rattus norvegicus
Assay: DrugMatrix - Regimen: Daily Repeat
Format: toxicity, organism-based, Sprague-Dawley
Set-up: regimen Daily Repeat, gender Male, age 6-8 weeks
Settings: in vivo, po, route oral GAVAGE, […]; for ABSOLUTE BASOPHIL / ABSOLUTE EOSINOPHIL / ABSOLUTE LYMPHOCYTE / ABSOLUTE MONOCYTE / ABSOLUTE SEGMENTED NEUTROPHIL / BASOPHIL / EOSINOPHIL / ERYTHROCYTE COUNT / HEMATOCRIT / HEMOGLOBIN / LEUKOCYTE COUNT / LYMPHOCYTE / MEAN CORPUSCULAR HEMOGLOBIN / MEAN CORPUSCULAR HEMOGLOBIN CONCENTRATION / MEAN CORPUSCULAR VOLUME / MONOCYTE / NEUTROPHIL / NUCLEATED RED BLOOD CELLS / PLATELET COUNT: tissue Blood; for ALANINE AMINOTRANSFERASE / ALBUMIN / ALKALINE PHOSPHATASE / ASPARTATE AMINOTRANSFERASE / BLOOD UREA NITROGEN / CARBON DIOXIDE / CHLORIDE / CHOLESTEROL / CREATINE PHOSPHOKINASE / CREATININE / GLUCOSE / LACTATE DEHYDROGENASE / LIPASE / PHOSPHORUS / POTASSIUM / SODIUM / TOTAL BILIRUBIN / TOTAL PROTEIN / URIC ACID: tissue Plasma
[1] = 0 mg/kg, 72 h, dose level Control, time 3 day
[2] = 0 mg/kg, 120 h, dose level Control, time 5 day
[3] = 4 mg/kg, 72 h, dose level Low, time 3 day

CSc1ccc2c(c1)N(CCC1CCCCN1C)c1ccccc1S2 (centres undefined) [THIORIDAZINE]
ABSOLUTE BASOPHIL [1]: 0 CELLS/uL | ABSOLUTE EOSINOPHIL [1]: 179.67 CELLS/uL | ABSOLUTE LYMPHOCYTE [1]: 11440.17 CELLS/uL | ABSOLUTE MONOCYTE [1]: 128.83 CELLS/uL | ABSOLUTE SEGMENTED NEUTROPHIL [1]: 1051.33 CELLS/uL | BASOPHIL [1]: 0% | EOSINOPHIL [1]: 1.33% | ERYTHROCYTE COUNT [1]: 5.53 x10E6/uL | HEMATOCRIT [1]: 34.75% | HEMOGLOBIN [1]: 12.88 G/DL | LEUKOCYTE COUNT [1]: 12.8 x10E3/uL | LYMPHOCYTE [1]: 89.5% | MEAN CORPUSCULAR HEMOGLOBIN [1]: 23.38 pg | MEAN CORPUSCULAR HEMOGLOBIN CONCENTRATION [1]: 37.12 G/DL | MEAN CORPUSCULAR VOLUME [1]: 62.88 fL | MONOCYTE [1]: 1% | NEUTROPHIL [1]: 8.17% | NUCLEATED RED BLOOD CELLS [1]: 0 /100WBC | PLATELET COUNT [1]: 1292 x10E3/uL | ALANINE AMINOTRANSFERASE [1]: 58.67 u/L | ALBUMIN [1]: 4.25 G/DL | ALKALINE PHOSPHATASE [1]: 437.83 u/L | ASPARTATE AMINOTRANSFERASE [1]: 85.17 u/L | BLOOD UREA NITROGEN [1]: 14.17 mg/dL | CARBON DIOXIDE [1]: 28.67 mmol/L | CHLORIDE [1]: 102.17 MEQ/L | CHOLESTEROL [1]: 68.5 mg/dL | CREATINE PHOSPHOKINASE [1]: 271.83 u/L | CREATININE [1]: 0.2 mg/dL | GLUCOSE [1]: 156.67 mg/dL | LACTATE DEHYDROGENASE [1]: 112.33 u/L | LIPASE [1]: 9.33 u/L | PHOSPHORUS [1]: 11.1 mg/dL | POTASSIUM [1]: 6.46 MEQ/L | SODIUM [1]: 144.37 MEQ/L | TOTAL BILIRUBIN [1]: 0.23 mg/dL | TOTAL PROTEIN [1]: 5.8 G/DL | URIC ACID [1]: 1.55 mg/dL | ABSOLUTE BASOPHIL [2]: 0 CELLS/uL | ABSOLUTE EOSINOPHIL [2]: 87 CELLS/uL | ABSOLUTE LYMPHOCYTE [2]: 14743.5 CELLS/uL | ABSOLUTE MONOCYTE [2]: 187 CELLS/uL | ABSOLUTE SEGMENTED NEUTROPHIL [2]: 1499.17 CELLS/uL | BASOPHIL [2]: 0% | EOSINOPHIL [2]: 0.5% | ERYTHROCYTE COUNT [2]: 5.84 x10E6/uL | HEMATOCRIT [2]: 36.3% | HEMOGLOBIN [2]: 13.55 G/DL | LEUKOCYTE COUNT [2]: 16.52 x10E3/uL | LYMPHOCYTE [2]: 89.5% | MEAN CORPUSCULAR HEMOGLOBIN [2]: 23.25 pg | MEAN CORPUSCULAR HEMOGLOBIN CONCENTRATION [2]: 37.35 G/DL | MEAN CORPUSCULAR VOLUME [2]: 62.27 fL | MONOCYTE [2]: 1.17% | NEUTROPHIL [2]: 8.83% | NUCLEATED RED BLOOD CELLS [2]: 0.17 /100WBC | PLATELET COUNT [2]: 1233.5 x10E3/uL | ALANINE AMINOTRANSFERASE [2]: 62.5 u/L | ALBUMIN [2]: 4.17 G/DL | ALKALINE PHOSPHATASE [2]: 464.33 u/L | ASPARTATE AMINOTRANSFERASE [2]: 99.67 u/L | BLOOD UREA NITROGEN [2]: 14.33 mg/dL | CARBON DIOXIDE [2]: 26 mmol/L | CHLORIDE [2]: 102.33 MEQ/L | CHOLESTEROL [2]: 60.67 mg/dL | CREATINE PHOSPHOKINASE [2]: 402.5 u/L | CREATININE [2]: 0.22 mg/dL | GLUCOSE [2]: 173.5 mg/dL | LACTATE DEHYDROGENASE [2]: 518.17 u/L | LIPASE [2]: 10.83 u/L | PHOSPHORUS [2]: 11.4 mg/dL | POTASSIUM [2]: 6.13 MEQ/L | SODIUM [2]: 142.63 MEQ/L | TOTAL BILIRUBIN [2]: 0.17 mg/dL | TOTAL PROTEIN [2]: 6.1 G/DL | URIC ACID [2]: 1.97 mg/dL | ABSOLUTE BASOPHIL [3]: 0 CELLS/uL | ABSOLUTE EOSINOPHIL [3]: 0 CELLS/uL | ABSOLUTE LYMPHOCYTE [3]: 12903.67 CELLS/uL | ABSOLUTE MONOCYTE [3]: 46 CELLS/uL | ABSOLUTE SEGMENTED NEUTROPHIL [3]: 817 CELLS/uL | BASOPHIL [3]: 0% | EOSINOPHIL [3]: 0% | ERYTHROCYTE COUNT [3]: 5.52 x10E6/uL | HEMATOCRIT [3]: 35.4% | HEMOGLOBIN [3]: 13.13 G/DL | LEUKOCYTE COUNT [3]: 13.77 x10E3/uL | LYMPHOCYTE [3]: 93.67% | MEAN CORPUSCULAR HEMOGLOBIN [3]: 23.8 pg | MEAN CORPUSCULAR HEMOGLOBIN CONCENTRATION [3]: 37.1 G/DL | MEAN CORPUSCULAR VOLUME [3]: 64.17 fL | MONOCYTE [3]: 0.33% | NEUTROPHIL [3]: 6% | NUCLEATED RED BLOOD CELLS [3]: 0 /100WBC | PLATELET COUNT [3]: 1132.33 x10E3/uL | ALANINE AMINOTRANSFERASE [3]: 50 u/L | ALBUMIN [3]: 4.1 G/DL | ALKALINE PHOSPHATASE [3]: 495.33 u/L | ASPARTATE AMINOTRANSFERASE [3]: 79.67 u/L | BLOOD UREA NITROGEN [3]: 12 mg/dL | CARBON DIOXIDE [3]: 28.67 mmol/L | CHLORIDE [3]: 101.67 MEQ/L | CHOLESTEROL [3]: 70.67 mg/dL | CREATINE PHOSPHOKINASE [3]: 382.67 u/L | CREATININE [3]: 0.17 mg/dL | GLUCOSE [3]: 176.33 mg/dL | LACTATE DEHYDROGENASE [3]: 65.33 u/L | LIPASE [3]: 9.67 u/L | PHOSPHORUS [3]: 11.5 mg/dL | POTASSIUM [3]: 6.31 MEQ/L | SODIUM [3]: 142.93 MEQ/L | TOTAL BILIRUBIN [3]: 0.2 mg/dL | TOTAL PROTEIN [3]: 5.57 G/DL | URIC ACID [3]: 1.93 mg/dL
